Measurements as given in patent US7759313B2, “Induction method for cell differentiation” (Obschetstvo S Ogranichennoi Otvetstvennostiyu …, priority 2002, dated 2010).
Where two headings read alike, the source gives them in different places.

Tests used:
[1] = Peripheral blood leukocytes formula under Cyclophosphamide; format: in vivo, mice; settings: day 3 post CPH
Description: (§1) Two groups of mice are used.

[2] = format: in vivo, mice
Description: as §1

[3] = Total leukocyte number in peripheral blood under Cyclophosphamide

O=P1(N(CCCl)CCCl)NCCCO1 (centres unmarked) [CPH, Cyclophosphamide]
Myelocytes ([1]; CPH 200 mg/kg (Dicarbamine group: 0.5 mg/kg 5 days prior and 5 days after)): 0% | Monocytes [1]: 4.649% | Myelocytes [1]: 0 in mm^3 | Cellularity of bone marrow (number of cells) ([2]; CPH 200 mg/kg (Dicarbamine group: 0.5 mg/kg 5 days prior and 5 days after), day 3): 8.2 ± 1.65 millions | Cellularity of bone marrow (number of cells) ([2]; day 5 after CPH): 13.05 ± 2.75 millions | Cellularity of bone marrow (number of cells) ([2]; day 7 after CPH): 25.22 ± 2.75 millions | Cellularity of bone marrow (number of cells) ([2]; day 10 after CPH): 27.9 ± 2.75 millions | Cellularity of bone marrow (number of cells) ([2]; day 13 after CPH): 30.15 ± 6.6 millions | Cellularity of bone marrow (number of cells) ([2]; day 17 after CPH): 25.0 ± 3.16 millions | Cellularity of bone marrow (number of cells) ([2]; day 21 after CPH): 26.55 ± 4.53 millions | Total leukocyte number ([3]; CPH 200 mg/kg, day 5): 4.38 ± 0.77 thousand in mm^3 | Total leukocyte number ([3]; CPH 200 mg/kg, day 7): 10.50 ± 3.02 thousand in mm^3 | Total leukocyte number ([3]; CPH 200 mg/kg, day 10): 6.44 ± 0.60 thousand in mm^3 | Total leukocyte number ([3]; CPH 200 mg/kg, day 13): 12.20 ± 3.02 thousand in mm^3 | Total leukocyte number ([3]; CPH 200 mg/kg, day 17): 12.20 ± 1.80 thousand in mm^3 | Total leukocyte number ([3]; CPH 200 mg/kg, day 21): 11.86 ± 1.32 thousand in mm^3 | Total leukocyte number ([3]; single CPH 200 mg/kg (Dicarbamine group: 0.5 mg/kg daily 5 days before and 5 days after), day 3 post CPH): 1.06 ± 0.44 thousand in mm^3
